Assay results taken from patent publication US7888349B2, “Piperazine, [1,4]Diazepane, [1,4]Diazocane, and [1,5]Diazocane fused imidazo ring compounds” (3M Innovative Properties Company, priority 2003, dated 2011).
Where a name gives a salt, the structure may show the parent alone.

**Q.** For `CS(=O)(=O)N1CCCn2c(nc3c(N)nc4cc(Br)ccc4c32)C1` [Example 365, 3-Bromo-9-(methylsulfonyl)-9,10,11,12-tetrahydro-8H-[1,4]diazepino[1′,2′:1,2]imidazo[4,5-c]quinolin-6-amine], which melting point is on record?
**A.** 303 °C

**Q.** For `CC1(C)Cn2c(nc3c(N)nc4ccccc4c32)CN1S(C)(=O)=O` [Example 3, 10,10-Dimethyl-9-(methylsulfonyl)-8,9,10,11-tetrahydropyrazino[1′,2′:1,2]imidazo[4,5-c]quinolin-6-amine], which melting point is on record?
**A.** 227 to 228 °C

**Q.** With `CC(C)(C)[Si](C)(C)OC1CN(S(C)(=O)=O)Cc2nc3c(N)nc4ccccc4c3n2C1` (centres unmarked) [Example 1, 11-{[tert-Butyl(dimethyl)silyl]oxy}-9-(methylsulfonyl)-9,10,11,12-tetrahydro-8H-[1,4]diazepino[1′,2′:1,2]imidazo[4,5-c]quinolin-6-amine] as the compound, how does the melting point read?
**A.** 256 to 258 °C

**Q.** Which melting point does the source give for `CS(=O)(=O)N1CCCn2c(nc3c(N)nc4cc(OCc5ccccc5)ccc4c32)C1` [Example 369, 3-(Benzyloxy)-9-(methylsulfonyl)-9,10,11,12-tetrahydro-8H-[1,4]diazepino[1′,2′:1,2]imidazo[4,5-c]quinolin-6-amine] here?
**A.** 235 to 236 °C

**Q.** Which melting point does the source give for `CS(=O)(=O)N1CCCn2c(nc3c(N)nc4ccccc4c32)C1` [Example 8, 9-(Methylsulfonyl)-9,10,11,12-tetrahydro-8H-[1,4]diazepino[1′,2′:1,2]imidazo[4,5-c]quinolin-6-amine] here?
**A.** 280 °C

**Q.** For `CS(=O)(=O)N1CCCn2c(nc3c(N)nc4cc(-c5cccnc5)ccc4c32)C1` [Example 366, 9-(Methylsulfonyl)-3-pyridin-3-yl-9,10,11,12-tetrahydro-8H-[1,4]diazepino[1′,2′:1,2]imidazo[4,5-c]quinolin-6-amine], which melting point is on record?
**A.** 302 °C

**Q.** With `CS(=O)(=O)N1CCCn2c(nc3c(N)nc4ccccc4c32)C1` (as salt: trifluoroacetate) [Example 7, 9-(Methylsulfonyl)-9,10,11,12-tetrahydro-8H-[1,4]diazepino[1′,2′:1,2]imidazo[4,5-c]quinolin-6-amine trifluoroacetate] as the compound, how does the melting point read?
**A.** 250 to 250.9 °C

**Q.** With `CC(C)(C)OC(=O)N1CCCn2c(nc3c(N)nc4ccccc4c32)C1` [Example 6, tert-Butyl 6-amino-11,12-dihydro-8H-[1,4]diazepino[1′,2′:1,2]imidazo[4,5-c]quinoline-9(10H)-carboxylate] as the compound, how does the melting point read?
**A.** 213 °C

**Q.** Which melting point does the source give for `CS(=O)(=O)N1CCn2c(nc3c(N)nc4cc(OCc5ccccc5)ccc4c32)C1` [Example 368, 3-(Benzyloxy)-9-(methylsulfonyl)-8,9,10,11-tetrahydropyrazino[1′,2′:1,2]imidazo[4,5-c]quinolin-6-amine] here?
**A.** 266 to 268 °C

**Q.** For `CS(=O)(=O)N1CCn2c(nc3c(N)nc4ccccc4c32)C1` (as salt: trifluoroacetate) [Example 5, 9-(Methylsulfonyl)-8,9,10,11-tetrahydropyrazino[1′,2′:1,2]imidazo[4,5-c]quinolin-6-amine trifluoroacetate], which melting point is on record?
**A.** 242 to 243 °C

**Q.** Which melting point does the source give for `CS(=O)(=O)N1CCn2c(nc3c(N)nc4cc(Br)ccc4c32)C1` [Example 367, 3-Bromo-9-(methylsulfonyl)-8,9,10,11-tetrahydropyrazino[1′,2′:1,2]imidazo[4,5-c]quinolin-6-amine] here?
**A.** 315 to 317 °C

**Q.** With `CC(C)(C)OC(=O)N1CCn2c(nc3c(N)nc4ccccc4c32)C1` [Example 4, tert-Butyl 6-amino-10,11-dihydropyrazino[1′,2′:1,2]imidazo[4,5-c]quinoline-9(8H)-carboxylate] as the compound, how does the melting point read?
**A.** 207 °C

**Q.** With `CS(=O)(=O)N1CCCn2c(nc3c(N)nc4c(c32)CCCC4)C1` [Example 363, 9-(Methylsulfonyl)-2,3,4,8,9,10,11,12-octahydro-1H-[1,4]diazepino[1′,2′:1,2]imidazo[4,5c]quinolin-6-amine] as the compound, how does the melting point read?
**A.** 270 to 272 °C

**Q.** With `CS(=O)(=O)N1Cc2nc3c(N)nc4ccccc4c3n2CC(O)C1` (centres unmarked) [Example 2, 6-Amino-9-(methylsulfonyl)-9,10,11,12-tetrahydro-8H-[1,4]diazepino[1′,2′:1,2]imidazo[4,5-c]quinolin-11-ol] as the compound, how does the melting point read?
**A.** 282 to 283 °C
